According to US20230000997A1, “PROCESSES OF PREPARING POLYGLUTAMATED ANTIFOLATES AND USES OF THEIR COMPOSITIONS” (L.E.A.F. HOLDINGS GROUP LLC, priority 2019, published 2023):

Test: Applicant's experiments with FITC on liposomes (immunostimulant / detectable marker)
Conditions: reagent attached to liposome exterior

fluorescein isothiocyanate [FITC]
function as immunostimulant and detectable marker: serves as both an immunostimulant and a detectable marker
